In patent US20040006236A1, “Diaminopropionic acid derivatives” (priority 1999, published 2004):

Tests used:
[1] = target: T1, ICAM-1 binding to immobilized Mac-1 (Homo sapiens, UniProt P05107+P11215); assay: Mac-1/ICAM-1 screening assay (solid-phase ELISA); conditions: read-out: Mac-1/ICAM-1 Protein-Protein Assay IC50
T1 construct: made in house; host or cells: transfected 293 cells (Mac-1)
Summary of the method: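 Competitive solid-phase ELISA: membrane Mac-1 from transfected 293 cells coated at 3 μg/mL in 20 mM Hepes pH 7.2/0.14 M NaCl/1 mM MnCl2; compounds (0.12 nM-20 μM, 1:4 series) plus 5dICAM-Ig (40 μg/mL, added) 2 h at 37° C. Bound ICAM-Ig detected with HRP anti-human IgG Fc, TMB, A450; IC50 reported.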

[2] = test system: cell-surface Mac-1 adhesion to immobilized fibrinogen (HL-60 cells); assay: Mac-1/Fibrinogen cell-based screening assay; parameters: species or system human; conditions: Homo sapiens, HL-60, HL-60 cells; read-out: Mac-1/Fgn Cell based Assay IC50
Summary of the method: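 Wells coated with fibrinogen and blocked with PVP. Labeled HL-60 cells (2×10^6 cells/mL in RPMI/0.05% BSA/0.2 mM MnCl2) preincubated with DMSO-diluted compounds for 10 min at 37° C, then left to adhere 30 min at 37° C/5% CO2. Unbound cells washed off with TBS.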

T1 sequence (P05107 23-769, other chains not shown): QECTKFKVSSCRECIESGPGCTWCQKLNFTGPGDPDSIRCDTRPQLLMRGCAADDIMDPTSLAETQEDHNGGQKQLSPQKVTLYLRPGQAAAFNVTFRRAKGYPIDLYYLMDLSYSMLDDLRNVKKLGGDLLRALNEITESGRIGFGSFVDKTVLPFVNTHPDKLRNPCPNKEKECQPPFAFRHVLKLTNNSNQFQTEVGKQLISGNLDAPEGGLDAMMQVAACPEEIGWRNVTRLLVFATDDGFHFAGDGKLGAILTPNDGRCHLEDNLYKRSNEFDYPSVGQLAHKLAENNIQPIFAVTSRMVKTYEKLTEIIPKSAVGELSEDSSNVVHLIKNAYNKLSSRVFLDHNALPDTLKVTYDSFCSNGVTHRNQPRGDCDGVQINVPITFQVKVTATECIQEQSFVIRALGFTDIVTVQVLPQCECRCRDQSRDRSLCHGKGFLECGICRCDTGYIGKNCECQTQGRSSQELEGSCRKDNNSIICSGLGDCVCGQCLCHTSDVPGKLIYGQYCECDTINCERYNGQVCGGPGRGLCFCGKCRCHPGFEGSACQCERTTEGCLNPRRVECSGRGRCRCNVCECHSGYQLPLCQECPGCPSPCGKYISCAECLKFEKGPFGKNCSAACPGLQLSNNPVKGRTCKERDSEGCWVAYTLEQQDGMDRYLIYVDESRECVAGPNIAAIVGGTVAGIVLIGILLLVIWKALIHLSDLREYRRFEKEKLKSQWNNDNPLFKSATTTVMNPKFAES

## O=C(CC1CCCC1)NC[C@H](NC(=O)c1ccc(C(=O)NCc2cccc(O)c2)cc1Cl)C(=O)O [Example 77]
[1]
  IC50: 25 nM
[2]
  IC50: 312 nM
